Tested on: 782815-120-R-J1-PDC complex spheroid viability
Test: Anticancer human tumor 782815-120-R-J1-PDC patient-derived colon adenocarcinoma cell line growth inhibition [RAS]
Settings: for IC50: curve of first compound; for viability, T/C: stronger effect = lower value
In short: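 Tumour cells grown as complex spheroids with HUVEC endothelial cells and mesenchymal stem cells, treated with RAS pathway inhibitor combinations. Each agent spans half-log steps from near clinical Cmax, or 10 microM where Cmax is unknown.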

[1] = second compound 0.0316 µM, first compound 0.000949 µM
[2] = second compound 0.0316 µM, first compound 0.003 µM
[3] = second compound 0.0316 µM, first compound 0.00949 µM
[4] = second compound 0.0316 µM, first compound 0.03 µM
[5] = second compound 0.0316 µM, first compound 0.0949 µM
[6] = second compound 0.0316 µM, first compound 0.3 µM
[7] = second compound 0.1 µM, first compound 0.000949 µM
[8] = second compound 0.1 µM, first compound 0.003 µM
[9] = second compound 0.1 µM, first compound 0.00949 µM
[10] = second compound 0.1 µM, first compound 0.03 µM
[11] = second compound 0.1 µM, first compound 0.0949 µM
[12] = second compound 0.1 µM, first compound 0.3 µM
[13] = second compound 0.316 µM, first compound 0.000949 µM
[14] = second compound 0.316 µM, first compound 0.003 µM
[15] = second compound 0.316 µM, first compound 0.00949 µM
[16] = second compound 0.316 µM, first compound 0.03 µM
[17] = second compound 0.316 µM, first compound 0.0949 µM
[18] = second compound 0.316 µM, first compound 0.3 µM
[19] = second compound 1 µM, first compound 0.000949 µM
[20] = second compound 1 µM, first compound 0.003 µM
[21] = second compound 1 µM, first compound 0.00949 µM
[22] = second compound 1 µM, first compound 0.03 µM
[23] = second compound 1 µM, first compound 0.0949 µM
[24] = second compound 1 µM, first compound 0.3 µM
[25] = second compound 3.16 µM, first compound 0.000949 µM
[26] = second compound 3.16 µM, first compound 0.003 µM
[27] = second compound 3.16 µM, first compound 0.00949 µM
[28] = second compound 3.16 µM, first compound 0.03 µM
[29] = second compound 3.16 µM, first compound 0.0949 µM
[30] = second compound 3.16 µM, first compound 0.3 µM
[31] = second compound 10 µM, first compound 0.000949 µM
[32] = second compound 10 µM, first compound 0.003 µM
[33] = second compound 10 µM, first compound 0.00949 µM
[34] = second compound 10 µM, first compound 0.03 µM
[35] = second compound 10 µM, first compound 0.0949 µM
[36] = second compound 10 µM, first compound 0.3 µM
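Note: spheroids exposed to compounds for 7 days before reading.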
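Throughout, for viability, T/C: 100% = DMSO vehicle control viability.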

## C=CC(=O)N1CCN(c2nc(OCC3CCCN3C)nc3c(F)c(-c4nc(N)cc(C)c4C(F)(F)F)c(Cl)cc23)C(C)C1 (stereo unspecified) + C#Cc1c(F)ccc2cc(O)cc(-c3ncc4c(N5CC6CCC(C5)N6)nc(OCC56CCCN5CC(F)C6)nc4c3F)c12
Second compound 0.0316 µM
  IC50: > 1000 nM
Second compound 0.1 µM
  IC50: > 1000 nM
Second compound 0.316 µM
  IC50: > 1000 nM
Second compound 1 µM
  IC50: > 1000 nM
Second compound 3.16 µM
  IC50: > 1000 nM
Second compound 10 µM
  IC50: > 1000 nM
Second compound 0.0316 µM, first compound 0.00316 µM
  viability, T/C: 98.9%
Second compound 0.0316 µM, first compound 0.01 µM
  viability, T/C: 86.9%
Second compound 0.0316 µM, first compound 0.0316 µM
  viability, T/C: 103%
Second compound 0.0316 µM, first compound 0.1 µM
  viability, T/C: 92.5%
Second compound 0.0316 µM, first compound 0.316 µM
  viability, T/C: 96.9%
Second compound 0.0316 µM, first compound 1 µM
  viability, T/C: 97%
Second compound 0.1 µM, first compound 0.00316 µM
  viability, T/C: 97.3%
Second compound 0.1 µM, first compound 0.01 µM
  viability, T/C: 93.1%
Second compound 0.1 µM, first compound 0.0316 µM
  viability, T/C: 97.5%
Second compound 0.1 µM, first compound 0.1 µM
  viability, T/C: 94%
Second compound 0.1 µM, first compound 0.316 µM
  viability, T/C: 97%
Second compound 0.1 µM, first compound 1 µM
  viability, T/C: 101%
Second compound 0.316 µM, first compound 0.00316 µM
  viability, T/C: 92.6%
Second compound 0.316 µM, first compound 0.01 µM
  viability, T/C: 94.7%
Second compound 0.316 µM, first compound 0.0316 µM
  viability, T/C: 89.2%
Second compound 0.316 µM, first compound 0.1 µM
  viability, T/C: 91.8%
Second compound 0.316 µM, first compound 0.316 µM
  viability, T/C: 98.4%
Second compound 0.316 µM, first compound 1 µM
  viability, T/C: 84.4%
Second compound 1 µM, first compound 0.00316 µM
  viability, T/C: 95.5%
Second compound 1 µM, first compound 0.01 µM
  viability, T/C: 94.6%
Second compound 1 µM, first compound 0.0316 µM
  viability, T/C: 94%
Second compound 1 µM, first compound 0.1 µM
  viability, T/C: 99.2%
Second compound 1 µM, first compound 0.316 µM
  viability, T/C: 101%
Second compound 1 µM, first compound 1 µM
  viability, T/C: 98.3%
Second compound 3.16 µM, first compound 0.00316 µM
  viability, T/C: 97.3%
Second compound 3.16 µM, first compound 0.01 µM
  viability, T/C: 91.7%
Second compound 3.16 µM, first compound 0.0316 µM
  viability, T/C: 95.9%
Second compound 3.16 µM, first compound 0.1 µM
  viability, T/C: 105%
Second compound 3.16 µM, first compound 0.316 µM
  viability, T/C: 101%
Second compound 3.16 µM, first compound 1 µM
  viability, T/C: 90.5%
Second compound 10 µM, first compound 0.00316 µM
  viability, T/C: 106%
Second compound 10 µM, first compound 0.01 µM
  viability, T/C: 104%
Second compound 10 µM, first compound 0.0316 µM
  viability, T/C: 93.6%
Second compound 10 µM, first compound 0.1 µM
  viability, T/C: 99.6%
Second compound 10 µM, first compound 0.316 µM
  viability, T/C: 104%
Second compound 10 µM, first compound 1 µM
  viability, T/C: 91.1%

## CC1(C)CCC(Nc2ncc(C(F)(F)F)c(-c3c[nH]c4c(P(C)(C)=O)c(C#N)ccc34)n2)CN1 (stereo unspecified) + C#Cc1c(F)ccc2cc(O)cc(-c3ncc4c(N5CC6CCC(C5)N6)nc(OCC56CCCN5CC(F)C6)nc4c3F)c12
Second compound 0.0316 µM
  IC50: > 300 nM
Second compound 0.1 µM
  IC50: > 300 nM
Second compound 0.316 µM
  IC50: > 300 nM
Second compound 1 µM
  IC50: > 300 nM
Second compound 3.16 µM
  IC50: > 300 nM
Second compound 10 µM
  IC50: > 300 nM
[1]
  viability, T/C: 98.2%
[2]
  viability, T/C: 101%
[3]
  viability, T/C: 90.6%
[4]
  viability, T/C: 65.4%
[5]
  viability, T/C: 58.1%
[6]
  viability, T/C: 60.2%
[7]
  viability, T/C: 93.2%
[8]
  viability, T/C: 98.4%
[9]
  viability, T/C: 84.4%
[10]
  viability, T/C: 70.2%
[11]
  viability, T/C: 61.2%
[12]
  viability, T/C: 56.9%
[13]
  viability, T/C: 96.5%
[14]
  viability, T/C: 92.9%
[15]
  viability, T/C: 90.4%
[16]
  viability, T/C: 64.8%
[17]
  viability, T/C: 61.8%
[18]
  viability, T/C: 57.9%
[19]
  viability, T/C: 95%
[20]
  viability, T/C: 99.6%
[21]
  viability, T/C: 74.7%
[22]
  viability, T/C: 65.2%
[23]
  viability, T/C: 64.3%
[24]
  viability, T/C: 58.5%
[25]
  viability, T/C: 90.8%
[26]
  viability, T/C: 94.1%
[27]
  viability, T/C: 80%
[28]
  viability, T/C: 65.2%
[29]
  viability, T/C: 57.6%
[30]
  viability, T/C: 63.5%
[31]
  viability, T/C: 93.9%
[32]
  viability, T/C: 98.8%
[33]
  viability, T/C: 75.4%
[34]
  viability, T/C: 69.6%
[35]
  viability, T/C: 65%
[36]
  viability, T/C: 60.4%

## CCc1c2c(nc3ccc(O)cc13)-c1cc3c(c(=O)n1C2)COC(=O)[C@]3(O)CC + C#Cc1c(F)ccc2cc(O)cc(-c3ncc4c(N5CC6CCC(C5)N6)nc(OCC56CCCN5CC(F)C6)nc4c3F)c12
Second compound 0.0316 µM
  IC50: 4.66 nM
Second compound 0.1 µM
  IC50: 4.39 nM
Second compound 0.316 µM
  IC50: 4.86 nM
Second compound 1 µM
  IC50: 4.76 nM
Second compound 3.16 µM
  IC50: 4.2 nM
Second compound 10 µM
  IC50: 4.39 nM
[1]
  viability, T/C: 94.9%
[2]
  viability, T/C: 67.9%
[3]
  viability, T/C: 20.8%
[4]
  viability, T/C: 9.58%
[5]
  viability, T/C: 4.66%
[6]
  viability, T/C: 1.46%
[7]
  viability, T/C: 98.9%
[8]
  viability, T/C: 64%
[9]
  viability, T/C: 21.4%
[10]
  viability, T/C: 10.5%
[11]
  viability, T/C: 4.8%
[12]
  viability, T/C: 1.59%
[13]
  viability, T/C: 96.9%
[14]
  viability, T/C: 69.3%
[15]
  viability, T/C: 22.6%
[16]
  viability, T/C: 10.5%
[17]
  viability, T/C: 3.58%
[18]
  viability, T/C: 1.52%
[19]
  viability, T/C: 99.9%
[20]
  viability, T/C: 67.4%
[21]
  viability, T/C: 23.6%
[22]
  viability, T/C: 9.52%
[23]
  viability, T/C: 3.42%
[24]
  viability, T/C: 1.25%
[25]
  viability, T/C: 99.3%
[26]
  viability, T/C: 61.9%
[27]
  viability, T/C: 21%
[28]
  viability, T/C: 8.73%
[29]
  viability, T/C: 3.05%
[30]
  viability, T/C: 1.2%
[31]
  viability, T/C: 102%
[32]
  viability, T/C: 64%
[33]
  viability, T/C: 21%
[34]
  viability, T/C: 11.2%
[35]
  viability, T/C: 2.93%
[36]
  viability, T/C: 0.95%

From PubChem BioAssay AID2060887 (Molecular Pharmacology Branch, DTP, NCI, 2025)
